The target in one experiment is Collagenase-III. The experiment is described as follows: MMP enzymatic assay, hydrolysis of MCA-Pro-Leu-Gly-Leu-DPA-Ala-Arg-NH2, Collagenase-III. It is filed as biochemical. The following applies: 37° C., pH 7.5, 2.5% DMSO. How it is done:
The propeptide and catalytic domain portion of human collagenase-3 was expressed in E. Coli as an N-terminal fusion protein with ubiquitin. After purification, the catalytic domain was released by treatment with 1 mM APMA for 1 hour at 37° C., and then purified by zinc chelate chromatography.
Rat collagenase-3 was purified in active form from the culture media of uterine smooth muscle cells as described in Roswit, W. T. et al., Arch. Biochem. Biophys., 225, 285-295 (1983).
The matrix metalloprotease inhibitory activity of compounds of this invention in vitro was determined based on the hydrolysis of MCA-Pro-Leu-Gly-Leu-DPA-Ala-Arg-NH2 (Bachem, Inc.) at 37° C. as described in Knight, C. G., et al., FEBS Lett., 296, 263-266 (1992).
The matrix metalloprotease enzyme was diluted with assay buffer (50 mM Tricine pH 7.5, 200 mM NaCl, 10 mM CaCl2, and 0.005% Brij-35) containing 10 μmole of above substrate dissolved in DMSO. Compounds of the invention dissolved in DMSO or only DMSO (control samples) were added such that the final DMSO concentration in all assays was 2.5%. The fluorescence changes were monitored with a Perkin-Elmer LS-50B flourimeter using an excitation wavelength of 328 nm and an emission wavelength of 393 nm.

The subject of a further experiment is TNF-α. The experiment is described as follows: Inhibition of LPS induced TNF-α production in mice in vivo. The following applies: s.c. compound, LPS 50 μg/mouse i.p. 1 h later, blood after 1.5 h. The protocol: The activity of compounds of this invention in inhibiting the TNF-α release was determined, using a minor modification of the methods described in Zanetti, G.; Heumann, D., et. al., "Cytokine production after intravenous or peritoneal Gram-negative bacterial challenge in mice" J. Immunol., 148, 1890, (1992) and Sekut, L., Menius, J. A., et. al., "Evaluation if the significance of elevated levels of systemic and localized tumor necrosis factor in different animal models of inflammation" J. Lab. Clin. Med., 124, 813, (1994).
Female Balbic mice were anesthetized and injected subcutaneously with the test compounds dissolved in CMC vehicle or hydroxypropylmethyl cellulose based vehicle. Control animals received only the vehicle. After 1 h, LPS (50 μg/mouse, Sigma #13129, Sigma Chemical Co., St. Louis, Mo.) was injected intraperitoneally. After 1.5 h, blood was collected from the retro-rbital plexus region of the animals in a miicrotainer serum separator tube (Becton Dickinson, Cat. No. #5960, Becton Dickinson & Co., Franklin Lakes, N.J.). The sera was separated and the amount of TNF-α was determined using the EM-TNFA® kit (Endogen, Woburn, Mass.) by following the manufacturer's protocol.

The test system of experiment [1] is TNF-α release from Human Monomac 6 cells. The experiment is described as follows: Inhibition of TNF release in vitro, Monomac 6 cells, LPS/PMA. The following applies: 2 h; for inhibition at 2 µM: MONO-MAC-6, 2 μM, read-out: TNF-α % inhibition, Conc. 2 μM; for inhibition at 10 µM: MONO-MAC-6, 10 μM, read-out: TNF-α % inhibition, Conc. 10 μM. It is filed as cell-based. The protocol:
The activity of compounds of this invention in inhibiting the TNF release was determined, using the a minor modification of the method described in Pradines-Figueres, A. and Raetz, C. R. H., J. Biol. Chem., 267 (32), 23261, (1992).
Human Monomac 6 cells (Ziegler-Heitbrock, H. W. L., et al., Int. J. Cancer, 41, 456, (1988)) were cultured at 37° C. in RPMI 1640 medium containing 10% fetal calf serum to a density of 1×10^5 cells/ml. 0.23 ml of these cells were placed in each well of a tissue culture plate and the cells were incubated for 15 min. The test compounds were dissolved in above mentioned medium and added and the incubation was continued for an additional 15 min. 10 μl of an lipopolysaccharide/phorbol-12-myristate-13-acetate (LPS/PMA) mixture was added such that the final concentration of lipopolysaccharide was 10 ng/ml and the final concentration of phorbol-12-myristate-13-acetate was 30 ng/ml. The cells were incubated for 2 h after which the plate was centrifuged and the medium was removed and analyzed for TNF content. The analysis was performed using a TNF Quantikine® Inmunoassay (R & D Systems, Minneapolis, Minn. 55413) by following the manufacturer's protocol.
The TNF-α inhibitory activity of test materials, i.e., the measure of the TNF-α content in the test group relative to the vehicle treated group (control group) was: […]

Experiment [2] deals with collagen matrix of cartilage explants. In words: Degradation of cartilage plug in vitro (hydroxyproline release). It counts as cell-based. The following applies: bovine knee cartilage explants, IL-1-α 20 ng/ml, compounds at 10 to 300 nm, 21 days, hydroxyproline content vs control. How it is done: The ability of the compounds of this invention to inhibit the degradation of the collagen matrix (as judged by release of hydroxyproline) was determined by the cartilage plug degradation assay in vitro by following a slight modification of the method described in Spirito, S., Doughty, E., et al., "Metalloproteinase inhibitors halt collagen breakdown in IL-1 induced bovine nasal cartilage cultures" Inflamm. Res., 44, Supp. 2: S131-S132, (1995).
Cartilage explants prepared from freshly sacrificed bovine knee joints were added to the culture medium (Dubelco's modified eagle medium, Gibco #21063-001, Gibco BRL Products, Gaithersburg, Md.), without phenol red, but with HEPES, and L-glutamine and fungizone 2.5 μglml, gentamicin 50 μg/ml, penicillin 100 U/ml, and streptomycin 100 μg/ml). The cultures were stimulated with IL-1-α at a final concentration of 20 ng/ml. Compounds of Formula (I), were added at concentrations between 10 and 300 nm in DMSO. The control samples contained only IL-1-α. The cultures were incubated at 37° C. in an atmosphere of air with 6% CO2 for 21 days during which time the medium was changed twice/week. The cartilage plugs were removed, hydrolyzed and the hydroxyproline content was determined. The MMP inhibitory activity of test materials is the measure of the hydroxyproline content in the test group relative to the vehicle treated group (control group).

The subject of experiment [3] is collagen matrix of bovine nasal cartilage plugs. The experiment is described as follows: Cartilage plug degradation in vivo (cartilage plug implant assay). Particulars: female Lewis rats, implanted bovine nasal cartilage plugs, hydroxyproline content vs vehicle, 8 or 9 days.

Bounds are passed on as bounds.

By IC50 is commonly meant the concentration needed to halve the response being measured. By inhibition is commonly meant how much of the control response was suppressed. On Collagenase-III, `O=CN1CCN(S(=O)(=O)N2CCC(C(=O)c3ccc(Cl)cc3)CC2)C(C(=O)NO)C1` (racemic) [compound 262, N-hydroxy-1-[4-(4-chlorobenzoyl)piperidine-1-sulfonyl]-4-formylpiperazine-2-(RS)-carboxamide] registered an IC50 of 130 pM. The TNF-α % inhibition with TNF-α is listed as 50%. For the same compound, the inhibition at 2 µM in experiment [1] was 90%.

As for `CC(C)[C@@H](NS(=O)(=O)N1CCN(c2ccc(Cl)cc2)CC1)C(=O)NO` [compound 51, N-hydroxy-2-(R)-{[4-(4-chlorophenyl)piperazine-1-sulfonyl]amino}-3-methylbutyramide], the “% protection” value in experiment [2] came to 35%; in experiment [3] it was 45%. Further, half-maximal inhibition against Collagenase-III (IC50) required 2600 pM.

Regarding `CC(C)[C@@H](NS(=O)(=O)N1CCN(c2ccc(C(F)(F)F)cn2)CC1)C(=O)NO` [compound 60], in experiment [2], the “% protection” value came out at 89%.

For `CC(C)[C@@H](NS(=O)(=O)N1CCN(c2ccc(OCc3ccccc3)cc2)CC1)C(=O)NO` [compound 74, N-hydroxy-2-(R)-{[4-(4-benzyloxyphenyl)piperazine-1-sulfonyl]amino}-3-methylbutyramide], in experiment [3], the “% protection” value was found to be 46%. This compound registered a 50% inhibitory concentration (IC50) against Collagenase-III of 730 pM.

For `CC(C)[C@@H](NS(=O)(=O)N1CCC(Oc2ccc(Cl)cn2)CC1)C(=O)NO` [compound 100, N-hydroxy-2-(R)-{[4-(5-chloropyridin-2-yloxy)piperidine-1-sulfonyl]amino}-3-methybutyramide], the “% protection” value in experiment [2] is given as 68%; in experiment [3], 40%.

Regarding `CC(C)[C@@H](NS(=O)(=O)N1CCC(Oc2ccc(F)cc2)CC1)C(=O)NO` [compound 179, N-hydroxy-2-(R)-{[4-(4-fluorophenoxy)piperidine-1-sulfonyl]amino}-3-methylbutyramide], the “% protection” value in experiment [3] is given as 63%. Also, the midpoint of inhibition at Collagenase-III, the IC50, lay at 73 pM. Moreover, in experiment [1], the inhibition at 10 µM was below 15%.

On to `O=C(NO)[C@H]1CCCCN1S(=O)(=O)N1CCCC1` [compound 232, N-hydroxy-1-(pyrrolidine-1-sulfonyl)piperidine-2-(R)-carboxamide], for which, in the experiment with TNF-α, the TNF-α % inhibition worked out at 73%.

In the case of `O=C(c1ccc(Cl)cc1)C1CCN(S(=O)(=O)N2CCCC[C@@H]2C(=O)NO)CC1` [compound 242, N-hydroxy-1-[4-(4-chlorobenzoyl)piperidine-1-sulfonyl]piperidine-2-(R)-carboxamide], the “% protection” value in experiment [2] was determined as 27%. Also, the half-inhibitory concentration (IC50) on Collagenase-III came out at 63 pM. For the same compound, the inhibition at 10 µM in experiment [1] came out at 85%.

`N#Cc1ccc2[nH]cc(C3CCN(S(=O)(=O)N4CCCC[C@@H]4C(=O)NO)CC3)c2c1` [compound 294, N-hydroxy-1-[4-(5-cyanoindol-3-yl)piperidine-1-sulfonyl]piperidine-2-(R)-carboxamide] yielded a half-inhibitory concentration (IC50) at Collagenase-III of 340000 pM. Moreover, the TNF-α % inhibition in the experiment with TNF-α turned out to be 90%. Moreover, in experiment [1], the inhibition at 2 µM was 97%.

`CN(C)C(=O)N1CCN(S(=O)(=O)N2CCC(c3c[nH]c4c(F)c(F)c(F)c(F)c34)CC2)[C@@H](C(=O)NO)C1` [compound 309, N-hydroxy-4-(N,N-dimethylaminocarbonyl)-1-[4-(4,5,6,7-tetrafluoroindol-3-yl)piperidine-1-sulfonyl]piperazine-2-(R)-carboxamide] had an IC50 against Collagenase-III of 500000 pM. The compound also yielded a TNF-α % inhibition in the experiment on TNF-α of 46%. Besides, the inhibition at 2 µM in experiment [1] came out at 94%.

In turn, `O=C(c1ccc(Cl)cc1)C1CCN(S(=O)(=O)N2CCN(C(=O)c3cnccn3)C[C@@H]2C(=O)NO)CC1` [compound 319, N-hydroxy-1-[4-(4-chlorobenzoyl)piperidine-1-sulfonyl]-4-(1,4-pyrazin-2-yl-carbonyl)-piperazine-2-(R)-carboxamide] had a TNF-α % inhibition in the experiment on TNF-α of 50%. In addition, in experiment [1], the inhibition at 2 µM amounted to 81%.

`N#Cc1ccc2[nH]cc(C3CCN(S(=O)(=O)N4CCN(C(=O)N5CCOCC5)C[C@@H]4C(=O)NO)CC3)c2c1` [compound 321, N-hydroxy-4-(morpholin-4-ylcarbonyl)-1-[4-(5-cyanoindol-3-yl)piperdine-1-sulfonyl]piperazine-2-(R)-carboxamide] returned a TNF-α % inhibition in the experiment with TNF-α of 50%. In experiment [1], the inhibition at 2 µM stood at 93%.

These data come from US6130220A, “Sulfamide-metalloprotease inhibitors” (Syntex (USA) Inc., priority 1999, dated 2000).
